Experimental data taken from patent US11254668B2, “Pyrazolo[1,5-A]pyrazin-4-yl and related derivatives” (Pfizer Inc., priority 2017, dated 2022).
pIC50: −log10 of the molar value.

Assays:
Format in all cases: biochemical
Conditions in all cases: JAK Caliper enzyme assay
JAK1 = JAK1 (Homo sapiens (Human), UniProt P23458); test: JAK Caliper Enzyme Assay at 1 mM ATP, JAK1
Method in brief: (§1)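 Recombinant human kinase domains phosphorylate a fluorescent synthetic peptide at 1 mM ATP, room temperature, with enzyme and time tuned for 20-30% conversion; EDTA-stopped. Product/substrate separated by microfluidic mobility shift; percent effect versus DMSO and positive controls fitted to IC50 (nM).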

JAK2 = JAK2 (Homo sapiens (Human), UniProt O60674); test: JAK Caliper Enzyme Assay at 1 mM ATP, JAK2
JAK2, sequence (O60674 849-1124): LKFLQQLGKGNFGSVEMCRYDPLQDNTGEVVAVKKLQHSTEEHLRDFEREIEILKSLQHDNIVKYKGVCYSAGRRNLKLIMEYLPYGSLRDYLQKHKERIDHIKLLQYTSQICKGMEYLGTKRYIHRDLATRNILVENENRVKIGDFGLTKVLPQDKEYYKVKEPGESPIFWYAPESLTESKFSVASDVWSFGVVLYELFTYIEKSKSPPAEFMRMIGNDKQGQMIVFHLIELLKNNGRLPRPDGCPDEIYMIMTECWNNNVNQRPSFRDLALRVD
Method in brief: (§2)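 Inhibition is measured as reduced phosphorylation of a synthetic peptide by the recombinant human kinase domain at 1 mM ATP. Conditions give 20–30% conversion at room temperature before EDTA quench, and on-chip separation of labelled substrate and product yields percent conversion for dose–response plotting.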

JAK3 = JAK3 (Homo sapiens (Human), UniProt P52333); test: JAK Caliper Enzyme Assay at 1 mM ATP, JAK3
JAK3, sequence (P52333 822-1111): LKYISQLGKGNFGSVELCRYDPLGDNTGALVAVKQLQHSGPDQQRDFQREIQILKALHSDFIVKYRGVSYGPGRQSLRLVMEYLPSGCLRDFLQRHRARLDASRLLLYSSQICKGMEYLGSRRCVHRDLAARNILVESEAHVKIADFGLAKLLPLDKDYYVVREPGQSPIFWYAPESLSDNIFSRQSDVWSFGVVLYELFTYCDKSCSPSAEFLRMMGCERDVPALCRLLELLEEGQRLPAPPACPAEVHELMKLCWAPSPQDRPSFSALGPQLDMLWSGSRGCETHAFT
Method in brief: as §1

TYK2 = TYK2 (Homo sapiens (Human), UniProt P29597); test: JAK Caliper Enzyme Assay at 1 mM ATP, TYK2
TYK2, sequence (P29597 897-1176): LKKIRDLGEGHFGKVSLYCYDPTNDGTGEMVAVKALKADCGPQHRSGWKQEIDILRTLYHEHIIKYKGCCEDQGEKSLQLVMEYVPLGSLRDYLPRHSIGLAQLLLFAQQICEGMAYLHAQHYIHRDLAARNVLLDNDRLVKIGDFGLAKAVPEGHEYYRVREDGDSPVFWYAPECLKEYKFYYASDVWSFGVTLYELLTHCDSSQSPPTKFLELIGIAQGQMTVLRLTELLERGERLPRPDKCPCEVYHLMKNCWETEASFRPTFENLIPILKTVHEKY
Method in brief: as §2

JAK1, sequence (P23458 875-1153): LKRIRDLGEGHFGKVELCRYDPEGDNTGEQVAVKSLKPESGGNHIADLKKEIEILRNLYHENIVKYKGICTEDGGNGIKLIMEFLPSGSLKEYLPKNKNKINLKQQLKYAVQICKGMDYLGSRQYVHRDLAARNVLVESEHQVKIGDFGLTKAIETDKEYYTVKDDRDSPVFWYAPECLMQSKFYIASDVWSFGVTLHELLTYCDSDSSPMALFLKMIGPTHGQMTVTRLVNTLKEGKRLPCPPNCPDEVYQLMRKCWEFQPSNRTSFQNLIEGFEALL

Structure (SMILES) | pIC50 (JAK1) | pIC50 (JAK2) | pIC50 (JAK3) | pIC50 (TYK2)
COc1nc(-c2cc(-c3cnn([C@]4(CC#N)C[C@@H](C#N)C4)n3)c3cccnc3c2)cnc1N [Example 408, trans-3-{4-[7-(5-amino-6-methontpyrazin-2-yl)quinolin-5-yl]-2H-1,2,3-triazol-2-yl}-3-(cyanomethyl)cyclobutanecarbonitrile] | < 5.00 | < 5.00 | < 5.00 | 5.68
CS(=O)(=O)N1CC(CC#N)(n2ncc(-c3cc(-c4ccc(=O)[nH]c4)cc4ncccc34)n2)C1 [Example 409, [1-(methylsulfonyl)-3-{4-[7-(6-oxo-1,6-dihydropyridin-3-yl)quinolin-5-yl]-2H-1,2,3-triazol-2-yl}azetidin-3-yl]acetonitrile] | 5.58 | 6.01 | < 5.00 | 7.28
N#CC[C@]1(n2ncc(-c3cc(-c4cc[nH]c(=O)c4)cc4ncccc34)n2)C[C@@H](C#N)C1 [Example 410, cis-3-(cyanomethyl)-3-{4-[7-(2-oxo-1,2-dihydropyridin-4-yl)quinolin-5-yl]-2H-1,2,3-triazol-2-yl}cyclobutanecarbonitrile] | 5.63 | 6.68 | < 5.00 | 7.41
N#CC[C@]1(n2ncc(-c3cc(-c4cc[nH]c(=O)c4)cc4ncccc34)n2)C[C@H](C#N)C1 [Example 411, trans-3-(cyanomethyl)-3-{4-[7-(2-oxo-1,2-dihydropyridin-4-yl)quinolin-5-yl]-2H-1,2,3-triazol-2-yl}cyclobutanecarbonitrile] | < 5.00 | 5.77 | < 5.00 | 6.59
Cn1cc(-c2cc(-c3cnn(C4(CC#N)CN(S(C)(=O)=O)C4)n3)c3cccnc3c2)ccc1=O [Example 412, [3-{4-[7-(1-methyl-6-oxo-1,6-dihydropyridin-3-yl)quinolin-5-yl]-2H-1,2,3-triazol-2-yl}-1-(methylsulfonyl)azetidin-3-yl]acetonitrile] | 5.51 | 5.89 | < 5.00 | 6.78
CCn1cc(-c2cc(-c3cnn(C4(CC#N)CN(S(C)(=O)=O)C4)n3)c3cccnc3c2)ccc1=O [Example 413, [3-{4-[7-(1-ethyl-6-oxo-1,6-dihydropyridin-3-yl)quinolin-5-yl]-2H-1,2,3-triazol-2-yl}-1-(methylsulfonyl)azetidin-3-yl]acetonitrile] | 5.40 | 6.17 | < 5.00 | 7.05
CS(=O)(=O)N1CC(CC#N)(n2ncc(-c3cc(-c4c[nH]c(=O)[nH]c4=O)cc4ncccc34)n2)C1 [Example 414, [3-{4-[7-(2,4-dioxo-1,2,3,4-tetrahydropyrimidin-5-yl)quinolin-5-yl]-2H-1,2,3-triazol-2-yl}-1-(methylsulfonyl)azetidin-3-yl]acetonitrile] | < 5.00 | 5.21 | < 5.00 | 6.56
N#CC[C@]1(n2ncc(-c3cc(-c4cnc5[nH]ccc5n4)cc4ncccc34)n2)C[C@@H](C#N)C1 [Example 416, cis-3-(cyanomethyl)-3-{4-[7-(5H-pyrrolo[2,3-b]pyrazin-2-yl)quinolin-5-yl]-2H-1,2,3-triazol-2-yl}cyclobutanecarbonitrile] | 5.49 | 5.64 | < 5.00 | 6.16
N#CC[C@]1(n2ncc(-c3cc(-c4cnc5ncccn45)cc4ncccc34)n2)C[C@@H](C#N)C1 [Example 417, cis-3-(cyanomethyl)-3-{4-[7-(imidazo[1,2-a]pyrimidin-3-yl)quinolin-5-yl]-2H-1,2,3-triazol-2-yl}cyclobutanecarbonitrile] | 5.13 | 6.54 | < 5.00 | 6.96
N#CC[C@]1(n2ncc(-c3cc(-c4cnc5ncccn45)cc4ncccc34)n2)C[C@H](C#N)C1 [Example 418, trans-3-(cyanomethyl)-3-{4-[7-(imidazo[1,2-a]pyrimidin-3-yl)quinolin-5-yl]-2H-1,2,3-triazol-2-yl}cyclobutanecarbonitrile] | < 5.00 | 5.09 | < 5.00 | 5.81
N#CC[C@]1(n2ncc(-c3cc(-c4cnn5cccnc45)cc4ncccc34)n2)C[C@@H](C#N)C1 [Example 419, cis-3-(cyanomethyl)-3-{4-[7-(pyrazolo[1,5-a]pyrimidin-3-yl)quinolin-5-yl]-2H-1,2,3-triazol-2-yl}cyclobutanecarbonitrile] | 6.13 | 6.70 | < 5.00 | 6.98
N#CC[C@]1(n2ncc(-c3cc(-c4cnn5cccnc45)cc4ncccc34)n2)C[C@H](C#N)C1 [Example 420, trans-3-(cyanomethyl)-3-{4-[7-(pyrazolo[1,5-a]pyrimidin-3-yl)quinolin-5-yl]-2H-1,2,3-triazol-2-yl}cyclobutanecarbonitrile] | < 5.00 | 5.77 | < 5.00 | 6.04
N#CCC1(n2ncc(-c3cc(-c4cnc5cccnn45)cc4ncccc34)n2)CC(C#N)C1 (stereo not drawn) [Example 421, cis-3-(cyanomethyl)-3-{4-[7-(imidazo[1,2-b]pyridazin-3-yl)quinolin-5-yl]-2H-1,2,3-triazol-2-yl}cyclobutanecarbonitrile] | 5.81 | 6.45 | < 5.00 | 6.95
N#CC[C@]1(n2ncc(-c3cc(-c4cnc5c(N)nccn45)cc4ncccc34)n2)C[C@@H](C#N)C1 [Example 422, cis-3-{4-[7-(8-aminoimidazo[1,2-a]pyrazin-3-yl)quinolin-5-yl]-2H-1,2,3-triazol-2-yl}-3-(cyanomethyl)cyclobutanecarbonitrile] | 5.27 | 5.83 | < 5.00 | 6.53
N#CC[C@]1(n2ncc(-c3cc(-c4cn5ccnc5c(N)n4)cc4ncccc34)n2)C[C@@H](C#N)C1 [Example 423, cis-3-{4-[7-(8-aminoimidazo[1,2-a]pyrazin-6-yl)quinolin-5-yl]-2H-1,2,3-triazol-2-yl}-3-(cyanomethyl)cyclobutanecarbonitrile] | 5.65 | 6.74 | < 5.00 | 7.12
Cc1nc2ccc(-c3cc(-c4cnn([C@]5(CC#N)C[C@H](C#N)C5)n4)c4cccnc4c3)nc2[nH]1 [Example 424, cis-3-(cyanomethyl)-3-{4-[7-(2-methyl-3H-imidazo[4,5-b]pyridin-5-yl)quinolin-5-yl]-2H-1,2,3-triazol-2-yl}cyclobutanecarbonitrile] | 6.14 | 7.09 | 5.03 | 7.64
CN1C(=O)COc2ccc(-c3cc(-c4cnn([C@]5(CC#N)C[C@H](C#N)C5)n4)c4cccnc4c3)nc21 [Example 425, cis-3-(cyanomethyl)-3-{4-[7-(4-methyl-3-oxo-3,4-dihydro-2H-pyrido[3,2-b][1,4]oxazin-6-yl)quinolin-5-yl]-2H-1,2,3-triazol-2-yl}cyclobutanecarbonitrile] | 6.22 | 7.54 | < 5.00 | 7.92
CN1C(=O)COc2ccc(-c3cc(-c4cnn([C@]5(CC#N)C[C@@H](C#N)C5)n4)c4cccnc4c3)nc21 [Example 426, trans-3-(cyanomethyl)-3-{4-[7-(4-methyl-3-oxo-3,4-dihydro-2H-pyrido[3,2-b][1,4]oxazin-6-yl)quinolin-5-yl]-2H-1,2,3-triazol-2-yl}cyclobutanecarbonitrile] | 6.00 | 7.30 | < 5.00 | 7.62
